Reference: US10517854B2, “Dosing regiments of celgosivir for the treatment of dengue” (60 Degrees Pharmaceuticals, LLC, priority 2013, dated 2019)
Where “and” joins values, the source holds several entries; their conditions need not be identical. Equal entries are not always repeated. Entries after “also recorded” stand apart in the source; their conditions may differ. Where two headings read alike, the source gives them in different places.

How the values were obtained:
[1] = Pharmacokinetics mouse studies; details: in vivo
Experimental: The concentration profile of celgosivir and castanospermine in the mouse after a single IP dose of celgosivir at a dose of 50 mg/kg is illustrated in FIG. 6A. Serum concentrations were measured using a validated LC/MS/MS assay performed. Celgosivir was measurable in serum only up to 1 hr post-dosing.
The castanospermine concentration profile after dosing at 50 mg/kg BID for 5 days was calculated by nonparametric superposition (FIG. 6B). This dosing regimen of celgosivir protected 100% of mice in the lethal ADE dengue infection model.

DENV2 [2] = details: cited from earlier work
[3] = test system: DENV2 strain NGC subgenomic replicon; test: Replicon assay (luciferase, A549 replicon cell line); format: cell-based; details: Dengue virus, A549 replicon cells, 48 hour
Experimental: The DENV subgenomic replicon was derived from the DENV2 strain NGC and consists of a luciferase reporter and a puromycin resistance gene for stable transfection. (7) Only the nonstructural proteins NS1, NS2A, NS2B, NS3, NS4A, NS4B, and NS5 were represented in the replicon construct. Of the nonstructural proteins, only NS1 is known to be glycosylated.
The stably transfected A549 replicon cell line was plated into a 96-well plate in the presence of various concentrations of test compounds and incubated for 48 hour at 37° C. in 5% CO2 incubator. The luciferase activity of the replicon treated with various concentrations of the test compound was measured using EnduRen (Promega) at a 1:1000 dilution followed by incubation for 2 hrs before the luminescence was read using a Tecan plate-reader. The data was plotted against the log transformation of the concentration of the compounds to obtain a dose-response curve to calculate the EC50 value.

DENV2 [4] = test: Lethal ADE mouse model of viremia; format: in vivo
Experimental: To model ADE, mice were injected IP (intraperitoneal) with […] of mouse monoclonal antibody against the (DENV) E protein (4G2 clone) one day prior to infection. (9) For treatment, celgosivir was injected IP once or twice daily for a total of 5 days. Mice were monitored every day till Day 12 post infection. The data were plotted as Kaplan-Meier curves using Prism 5.0 software.
To evaluate the effect of dose and dose schedule, four drug regimens were studied in the ADE viremia model: 10, 25 and 50 mg/kg BID and 100 mg/kg QD (once daily). For the BID schedule, survival increased with increasing dose with survival rates of 13%, 63% and 100% for 10, 25, and 50 mg/kg BID.
Even when treatment was delayed (FIG. 5A), celgosivir (50 mg/kg BID) exerted a protective effect. In this experiment, survival at Day 12 was 100%, 75%, and 50% when treatment was immediate, delayed 24 hr or delayed 48 hr after DENV2 infection, respectively, in the ADE model; by contrast, none (0%) of the sham-treated mice survived past day 5 (FIG. 5B). Viremia, as determined by plaque assay, in celgosivir-treated mice (50 mg/kg BID) was 8.3% of levels in sham-treated mice after only 1 day of dosing. By study day 3, viremia had increased in untreated mice by more than 7-fold.

DENV1 = test: Cell-based flaviviral immunodetection assay (CFI), DENV1; details: Dengue virus, BHK-21; DENV1, BHK21 cells, 48 hours
[5] = parameters: tmax: unit not given here; details: cited from earlier work
DENV2 infected BHK21 = test: Fluorescence microscopy for NS1 in infected BHK21 cells; format: cell-based, dengue virus; details: 20 μM, 24 hr
Experimental: BHK21 cells were infected with DENV2 and treated with 20 μM celgosivir or saline. After 24 hr incubation, cells were stained with nuclear stain diamidino-2-phenylindole (DAPI) or with a MAb against NS1 in conjunction with a secondary antibody conjugated with Alexa-488 (green), then examined by fluorescent microscopy for the presence of NS1, a marker for viral replication.

[6] = test system: gastrointestinal α-amylase, sucrase, maltase; details: cited from earlier work
DENV3 = test: Cell-based flaviviral immunodetection assay (CFI), DENV3; details: Dengue virus, BHK-21; DENV3, BHK21 cells, 48 hours
DENV2 (TSV01 strain) = test: Cell-based flaviviral immunodetection assay (CFI), DENV2; details: Dengue virus, DENV2, BHK-21, 48 h, DENV2, BHK21 cells
Experimental: BHK21 cells were seeded at 1.3×104 in 96-well plate and incubated overnight at 37° C. in 5% CO2 incubator. Confluent monolayer of BHK21 cells were infected with DENV2 (TSV01 strain) at an MOI (multiplicity of infection) 0.3 in the presence of various concentrations of test compounds and incubated for 1 hour at 37° C. in 5% CO2 incubator. Infected cells were incubated with test compounds for another 48 hours at 37° C. in 5A CO2. Cells were fixed with methanol and mouse monoclonal antibody 4G2 was used to detect DENV E protein, which was quantified using a secondary anti-mouse antibody conjugated with horseradish peroxidase (HRP). Absorbance was read at 450 nm and dose-response curve was plotted accordingly. The 50% effective concentration (EC50), that is, the concentration of the test compound that decreased the level of viral E protein production by 50%, was calculated by nonlinear regression analysis.

[7] = healthy rats, single dose 35 mg/kg PO

CCCC(=O)O[C@H]1CN2CC[C@H](O)[C@@H]2[C@@H](O)[C@@H]1O.Cl [Celgosivir, celgosivir]
absorption compared with castanospermine [1]: more rapidly and efficiently absorbed than castanospermine
species detected in plasma after celgosivir [1]: only castanospermine was detected in the plasma
time celgosivir measurable in serum post-dosing ([1]; ip, 50 mg/kg): up to 1 hr
reduction of viremia (DENV2 [2]; given at the time of infection): 88%
reduction of viremia (DENV2 [2]; treatment delayed by 24 hours): 55%
EC50 [3]: 2200 nM
survival at Day 12 (DENV2 [4]; 10 mg/kg BID for 5 days): 12% and 13%
survival at Day 12 (DENV2 [4]; 25 mg/kg BID for 5 days): 62% and 63%
survival at Day 12 (DENV2 [4]; 50 mg/kg BID for 5 days, immediate treatment): 100%
viremia, of levels in sham-treated mice (DENV2 [4]; 50 mg/kg BID, after 1 day of dosing, plaque assay): 8.3%
viremia, of levels in sham-treated mice (DENV2 [4]; 50 mg/kg BID, study day 3, delayed 24 hr): 26%
viremia, of levels in sham-treated mice (DENV2 [4]; 50 mg/kg BID, study day 3, delayed 48 hr): 69%
viremia, of levels in sham-treated mice (DENV2 [4]; 50 mg/kg BID, study day 3, immediate treatment): 17%
survival at Day 12 (DENV2 [4]; 50 mg/kg BID, treatment delayed 24 hr): 75%
survival at Day 12 (DENV2 [4]; 50 mg/kg BID, treatment delayed 48 hr): 50%
survival (in words) (DENV2 [4]; 100 mg/kg once daily (QD)): no mice survived past day 6; also recorded: none surviving past Day 6
survival at Day 12 (DENV2 [4]; 100 mg/kg once daily (QD)): 0%
EC50 (DENV1): 650 ± 160 nM
mean Cmax in the portal vein ([5]; 400 mg/kg celgosivir PO): 1900 ng/mL
AUC [5, 7]: 10.5
Cmax [5, 7]: 8760 ± 1150 ng/mL
tmax [5, 7]: 0.44±0.01
AUC 0-60 min ([5]; portal vein, 400 mg/kg celgosivir PO): 1000 ng·h/mL
Oral bioavailability ([5]; rat): 93%
half-life ([5]; rat): 2.7 h
oral clearance (CL/F) ([5]; rat): 41.7 mL/min/kg
NS1 / viral replication by immunofluorescence (DENV2 infected BHK21): almost complete suppression of viral replication; also recorded: very low levels of NS1
inhibition of gastrointestinal enzymes, comparison [6]: weaker inhibitor than castanospermine
EC50 (DENV3): 680 ± 20 nM
EC50 (DENV2 (TSV01 strain)): 220 nM
